Experimental data from the NIST ThermoML archive (doi:10.1021/acs.jced.5b00474).
“And” between values parts separate entries of the source, which are not always exact repeats. Equal values may be shown once.

Assays:
[1] = xn = mol fraction of the nth substance listed; conditions: 101 kPa, Liquid; for mass density: Vibrating tube method; for speed of sound: Frequency=3 MHz, Sing-around technique in a fixed-path interferometer
[2] = 101 kPa; for speed of sound: Frequency=3 MHz, Sing-around technique in a fixed-path interferometer; for mass density: Vibrating tube method

CC#N [acetonitrile] + CN1CCCC1=O
[1], x2 = 0
Conditions	mass density [kg/m3]	speed of sound [m/s]
293.15 K	781.989	–
298.15 K	776.616	1278.6
303.15 K	771.178	1258.4
308.15 K	765.719	1238.3
313.15 K	760.223	1218.2
318.16 K	754.702	1198.1
323.16 K	749.144	1178

O=C1CCCN1 [2-pyrrolidinone]
[2], Metastable liquid
Conditions	mass density [kg/m3]	speed of sound [m/s]
293.15 K	1111.44	1649.3
298.15 K	1107.35	1632.9
301.15 K	1104.88	–
303.15 K	1103.26	1616.7
308.15 K	1099.17	1600.5
313.15 K	1095.08	1584.5
318.16 K	1091	1568.6
323.16 K	1086.92	1552.8

ClC(Cl)Cl [trichloromethane]
[2], Liquid
Conditions	mass density	speed of sound
293.15 K	1487.52 kg/m3 and 1488.55 kg/m3	1001.5 m/s and 1000.9 m/s
295.15 K	1483.74 kg/m3	–
297.15 K	1479.93 kg/m3	–
298.15 K	1478.02 kg/m3 and 1479.07 kg/m3	984.65 m/s and 984.33 m/s
303.15 K	1468.47 kg/m3	967.76 m/s
303.16 K	1469.52 kg/m3	967.53 m/s
308.15 K	1459.91 kg/m3	950.62 m/s
308.16 K	1458.85 kg/m3	950.87 m/s

CC#N [acetonitrile]
[2], Liquid
Conditions	mass density	speed of sound
293.15 K	781.989 kg/m3	–
298.15 K	776.609 kg/m3 and 776.616 kg/m3	1278.9 m/s and 1278.6 m/s
303.15 K	771.183 kg/m3 and 771.178 kg/m3	1259 m/s and 1258.4 m/s
308.15 K	765.722 kg/m3 and 765.719 kg/m3	1239.1 m/s and 1238.3 m/s
313.15 K	760.223 kg/m3 and 760.231 kg/m3	1219.3 m/s and 1218.2 m/s
318.15 K	754.709 kg/m3	1199.5 m/s
318.16 K	754.702 kg/m3	1198.1 m/s
323.16 K	749.144 kg/m3 and 749.15 kg/m3	1178 m/s and 1179.6 m/s

ClC(Cl)Cl [trichloromethane] + O=C1CCCN1
[1], x2 = 0
Conditions	mass density [kg/m3]	speed of sound [m/s]
293.15 K	1487.52	1001.5
295.15 K	1483.74	–
297.15 K	1479.93	–
298.15 K	1478.02	984.65
303.15 K	1468.47	967.76
308.16 K	1458.85	950.87

CN1CCCC1=O [N-methylpyrrolidone] + ClC(Cl)Cl
[1], x1 = 1
Conditions	mass density [kg/m3]	speed of sound [m/s]
293.15 K	1032.51	1564.7
298.14 K	1028.07	1545.5
303.14 K	1023.61	1526.1
308.15 K	1019.15	1506.9

CC#N [acetonitrile] + O=C1CCCN1
[1], x2 = 0
Conditions	mass density [kg/m3]	speed of sound [m/s]
298.15 K	776.609	1278.9
303.15 K	771.183	1259
308.15 K	765.722	1239.1
313.15 K	760.231	1219.3
318.15 K	754.709	1199.5
323.16 K	749.15	1179.6

CN1CCCC1=O [N-methylpyrrolidone]
[2], Liquid
Conditions	mass density	speed of sound
293.15 K	1032.25 kg/m3 and 1032.51 kg/m3	1564.7 m/s
298.14 K	1028.07 kg/m3	1545.5 m/s
298.15 K	1027.79 kg/m3	1544.6 m/s
303.14 K	1023.61 kg/m3	1526.1 m/s
303.15 K	1023.33 kg/m3	1525.3 m/s
308.15 K	1019.15 kg/m3 and 1018.87 kg/m3	1506 m/s and 1506.9 m/s
313.15 K	1014.41 kg/m3	1486.8 m/s
318.15 K	1009.95 kg/m3	1467.8 m/s
323.16 K	1005.48 kg/m3	1448.9 m/s
